Source: patent publication US9018211B2, “Inhibitors of the renal outer medullary potassium channel” (Merck Sharp & Dohme Corp., priority 2009, dated 2015)

Columns and labels:
Format in all cases: cell-based
Kir1.1 (ROMK1) = Kir1.1 (ROMK1) (Homo sapiens (Human), UniProt P48048); assay: ROMK Electrophysiology Assay (IonWorks Quattro whole cell voltage clamp); details: Chinese hamster ovary cells stably expressing Kir1.1; block at voltage step to 0 mV, 6 min compound incubation
Method: (§1) Several assays may be used to measure functional inhibition of the ROMK channel by compounds of the instant invention. One primary assay that can be used is a functional ^86Rb^+ efflux assay that measures the ability of ROMK to permeate ^86Rb^+, in the absence or presence of test compound. Under control conditions, cells loaded with ^86Rb^+ and incubated in Rb^+-free medium display a time-dependent efflux of the isotope, the rate of which depends on number of functional channels. […] This assay has been established with cell lines expressing either human, rat or dog ROMK channels, and can operate in 96- or 384-well format. Importantly, the human, rat, and dog ^86Rb^+ efflux assays can be carried out in the presence of up to 100% serum allowing, therefore, an accurate estimation of the effect of protein binding on the inhibitory activity of compounds of interest. Another ROMK functional assay makes use of the ability of thallium to permeate through open ROMK channels and increase the fluorescence of a dye previously loaded into the cells. Under control conditions, cells loaded with dye and exposed to thallium-containing medium display a time-dependent increase in fluorescence, the rate of which depends on number of functional channels. When cells are incubated in the presence of a channel inhibitor, the increase in fluorescence is attenuated in a concentration-dependent manner, and IC50 values of inhibition by compounds can be accurately determined. This assay has been established with cell lines expressing either human, or rat ROMK channels, and operates in 384-well format. Another assay for evaluation of the compounds of the instant invention and for evaluation of mechanism of action of compounds of Formula I relies on the measurement of the electrical current that is generated as potassium permeates through the channel. For these electrophysiological experiments, three different platforms, IonWorks, QPatch, or manual patch clamp, are used, depending on the experimental protocol under consideration. IonWorks operates in a 384-well format and allows accurate determination of IC50 values for inhibitors.
Chinese hamster ovary cells stably expressing Kir1.1 channels were maintained in T-75 flasks in cell culture media in a humidified 10% CO2 incubator at 37° C. Prior to an experiment, Kir1.1 expression was induced by overnight incubation with 1 mM sodium butyrate. […] After centrifugation, the cell pellet was resuspended in approximately 4.0 ml of bath solution and placed in the IonWorks instrument. The intracellular solution consisted of (in mM): 80 K gluconate, 40 KCl, 20 KF, 3.2 MgCl2, 3 EGTA, 5 Hepes, pH 7.4. […] Current amplitudes were measured using the IonWorks software.

hROMK (hKir1.1) = hROMK (hKir1.1) (Homo sapiens (Human), UniProt P48048); assay: Thallium Flux Assay; details: HEK293 cells stably expressing hROMK; FLIPR-Tetra, 30 min incubation
Method: as §1
To dislodge the cell, gently bang the side of the flask with your hand. […] Centrifuge at 1,500 rpm for 6 min followed by resuspension in complete growth media and determine cell concentration. […] Under ideal growth conditions and appropriate tissue culture practices, this cell line is stable for 40-45 passages.
FluxOR Kit Components (Invitrogen F10017)
• FluxOR™ Reagent (Component A) • FluxOR™ Assay Buffer (Component B)—10× Concentrate • PowerLoad™ Concentrate (Component C)—100× Concentrate • Probenecid (Component D)—Lyophilized sample is kept at −20° C. Water soluble, 100× after solubilization in 1 ml water. […] Store at 4° C. • Thallium sulfate (Tl2SO4) Concentrate (Component G)—50 mM in water. […] Can be stored at room temperature • Stimulant Buffer (prepared at 5× final concentration in 1× FluxOR™ Chloride-Free Buffer): 7.5 mM Thallium sulfate and 0.75 mM Potassium sulfate (to give a final assay concentration of 3 mM Thallium/0.3 mM Potassium). Store at 4° C. when not in use. If kept sterile, this solution is good for months.

hROMK1 (Kir1.1) = hROMK1 (Kir1.1) (Homo sapiens (Human), UniProt P48048); assay: 86Rb+ Efflux Assay; details: CHO-DHFR- cells stably expressing hROMK1; 35 min incubation
Method: as §1

Sequence of hROMK (hKir1.1) (P48048 whole entry): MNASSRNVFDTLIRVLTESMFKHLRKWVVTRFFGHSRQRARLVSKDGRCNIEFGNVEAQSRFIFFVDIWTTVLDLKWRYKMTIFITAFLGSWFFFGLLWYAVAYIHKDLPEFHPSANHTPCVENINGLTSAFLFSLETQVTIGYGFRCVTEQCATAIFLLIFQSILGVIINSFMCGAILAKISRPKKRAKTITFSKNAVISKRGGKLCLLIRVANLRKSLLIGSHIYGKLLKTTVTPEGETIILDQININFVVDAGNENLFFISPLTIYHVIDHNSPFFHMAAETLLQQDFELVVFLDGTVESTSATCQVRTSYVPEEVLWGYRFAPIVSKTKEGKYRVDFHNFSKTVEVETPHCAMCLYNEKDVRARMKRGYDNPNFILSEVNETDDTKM
Sequence of hROMK1 (Kir1.1) (P48048 whole entry): as above
Sequence of Kir1.1 (ROMK1) (P48048 whole entry, species assumed): as the sequence (P48048 whole entry) above

Q: `O=C1OCc2c1ccc(C(O)CN1CCN(CC(O)c3ccc4c(c3Cl)COC4=O)CC1)c2Cl` (centres unmarked) [Example 5] was tested. Which IC50 (Kir1.1 (ROMK1)) did it give?
A: The IC50 was 7 nM.

Q: And the IC50 (hROMK (hKir1.1))?
A: Its IC50 is 13 nM.

Q: And the IC50 (hROMK1 (Kir1.1))?
A: The IC50 was 88 nM.

Q: What does the source list for `Cc1c(CCN2CCN(CC(O)c3ccc4c(c3C)COC4=O)CC2)ccc2c1COC2=O` (centres unmarked) [Example 12, 5-(1-hydroxy-2-{4-[2-(4-methyl-1-oxo-1,3-dihydro-2-benzofuran-5-yl)ethyl]piperazine-1-yl}ethyl)-4-methyl-2-benzofuran-1(3H)-one]?
A: IC50 (Kir1.1 (ROMK1)): 13 nM; IC50 (hROMK (hKir1.1)): 6 nM; IC50 (hROMK1 (Kir1.1)): 46 nM

Q: Which results are given for `Cc1c(C(O)CN2CCN(CC3CCc4c3ccc3c4COC3=O)CC2)ccc2c1COC2=O` (centres unmarked) [Example 20, 6-({4-[2-hydroxy-2-(4-methyl-1-oxo-1,3-dihydro-2-benzofuran-5-yl)ethyl]piperazin-1-yl}methyl)-1,6,7,8-tetrahydro-3H-indeno[4,5-c]furan-3-one]?
A: IC50 (Kir1.1 (ROMK1)): 14 nM; IC50 (hROMK (hKir1.1)): 7 nM; IC50 (hROMK1 (Kir1.1)): 36 nM

Q: For `COc1cc(C(O)CN2CCN(CCc3ccc4c(c3C)COC4=O)CC2)c(F)cc1C#N` (centres unmarked) [Example 24, 5-fluoro-4-(1-hydroxy-2-{4-[2-(4-methyl-1-oxo-1,3-dihydro-2-benzofuran-5-yl)ethyl]piperazin-1-yl}ethyl)-2-(methyloxy)benzonitrile], which IC50 (hROMK (hKir1.1)) is on record?
A: Its IC50 is 26 nM.

Q: And the IC50 (hROMK1 (Kir1.1))?
A: Its IC50 is 130 nM.

Q: Which results are given for `Cc1c(C(O)CN2CCN(CC3CCc4c3ccc(F)c4C#N)CC2)ccc2c1COC2=O` (centres unmarked) [Example 55, 5-fluoro-1-({4-[2-hydroxy-2-(4-methyl-1-oxo-1,3-dihydro-2-benzofuran-5-yl)ethyl]piperazin-1-yl}methyl)-2,3-dihydro-1H-indene-4-carbonitrile]?
A: IC50 (Kir1.1 (ROMK1)): 23 nM; IC50 (hROMK (hKir1.1)): 15 nM; IC50 (hROMK1 (Kir1.1)): 47 nM
